As a reminder, the IC50 is the concentration at which inhibition is half-maximal.

Where “and” joins values, the source holds several entries; their conditions need not be identical. Equal entries are not always repeated. Where two headings read alike, the source gives them in different places. Some results are limits rather than exact numbers.

Common to all, as to test: Chymotrypsin coupled prolyl-isomerase assay
One experiment addresses T1, PPWD1 (Homo sapiens, UniProt Q96BP3).
T1 construct: PPWD1 (UniProtKB Entry Q96BP3: residues 473–646); host or cells: E. coli BL21(DE3)
T1 sequence (Q96BP3 473-646): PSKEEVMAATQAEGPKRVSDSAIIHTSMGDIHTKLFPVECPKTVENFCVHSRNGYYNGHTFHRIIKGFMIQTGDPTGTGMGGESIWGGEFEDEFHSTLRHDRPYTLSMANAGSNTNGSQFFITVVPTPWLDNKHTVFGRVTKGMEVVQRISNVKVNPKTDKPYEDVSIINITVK
Format: biochemical. The settings on record: for prolyl-isomerase activity (raw dose-response value): in s^-1; for IC50: wild-type PPWD1, read-out: Wild-Type Cyclophilin Prolyl Isomerase Inhibition IC50 Values, PPWD1.

The target of the next experiment is CypD (Homo sapiens, UniProt P30405).
Chain of CypD (P30405 45-207): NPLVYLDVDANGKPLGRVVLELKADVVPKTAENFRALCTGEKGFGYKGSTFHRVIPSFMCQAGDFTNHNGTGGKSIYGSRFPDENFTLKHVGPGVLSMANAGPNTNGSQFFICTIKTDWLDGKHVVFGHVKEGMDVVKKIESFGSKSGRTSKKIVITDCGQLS
For the next experiment, the target named is T2, PPIL1 (Homo sapiens, UniProt Q9Y3C6).
T2 construct: PPIL1 (UniProtKB Entry Q9Y3C6: residues 1–166); made in house; host or cells: E. coli BL21(DE3)
T2 sequence (Q9Y3C6 1-166): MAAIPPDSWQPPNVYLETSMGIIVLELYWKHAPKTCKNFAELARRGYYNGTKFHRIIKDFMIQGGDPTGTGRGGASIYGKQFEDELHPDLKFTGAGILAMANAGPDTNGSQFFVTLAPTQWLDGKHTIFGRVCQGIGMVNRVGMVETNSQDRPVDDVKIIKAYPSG
Format: biochemical.

Where [1] appears, read: wild-type PPIL1, read-out: Wild-Type Cyclophilin Prolyl Isomerase Inhibition IC50 Values, PPIL1.
Where [2] appears, read: read-out: Wild-Type Cyclophilin Prolyl Isomerase Inhibition IC50 Values, CypD, wild-type CypD.

Procedure for PPIL1: Adapting a previously described protocol[51], with an Agilent Bravo Velocity 11 with a 384ST head, 90 µL assay buffer (25 mM HEPES pH 7.3, 100 mM NaCl, 0.01% Triton X-100) containing 5.28 nM cyclophilin was added into a flat, clear-bottom, black 384-well plate pre-chilled in a Corning CoolBox at 2–3 °C. Five microliters of compound pre-dissolved in 5% DMSO/assay buffer was then added to appropriate wells and incubated at 2–3 °C for 5 min. Five microliters of 0.5 mM α-chymotrypsin from bovine pancreas (Type II, lyophilized powder, Millipore-Sigma) in 20% 1 mM HCl/Assay Buffer was then added to each well and incubated at 2–3 °C for 5 min. […] Using the internal liquid handling system of the FLIPR, 1 µL 0.5 mM Suc-AAPF-AMC (Chymotrypsin Substrate II, Millipore-Sigma) dissolved in 0.55 M LiCl/2,2,2-trifluoroethanol was added to each well, which was then mixed for 5 s, followed by immediate fluorescence measurements every 1 s for 330 s using a 360–380 nm excitation LED module and a 400–460 nm emission filter. Final concentrations of the plate include 5 nM cyclophilin, 0.25% DMSO, 25 µM α-chymotrypsin, 5 µM Suc-AAPF-AMC. Raw fluorescence data was analyzed by non-linear regression analysis with Prism v.9 by fitting one-phase association curves to each well. Analyses were halted after the calculated maximum fluorescent value owing to observed fluorescent bleaching during the sustained fluorescent plateau. Rate constants calculated for each well (s^−1) were then normalized to substrate only (no prolyl-isomerase) and enzyme + substrate only controls. IC50 values were calculated as the value at which 50% inhibition was achieved on the non-linear regression fitted curve of each compound.
Procedure for PPWD1: Five microliters of compound pre-dissolved in 5% DMSO/assay buffer was then added to appropriate wells and incubated at 2–3 °C for 5 min. Five microliters of 0.5 mM α-chymotrypsin from bovine pancreas (Type II, lyophilized powder, Millipore-Sigma) in 20% 1 mM HCl/Assay Buffer was then added to each well and incubated at 2–3 °C for 5 min. The plate was then quickly transferred to a FLIPR Tetra High-Throughput Cellular Screening System (Molecular Devices). Using the internal liquid handling system of the FLIPR, 1 µL 0.5 mM Suc-AAPF-AMC (Chymotrypsin Substrate II, Millipore-Sigma) dissolved in 0.55 M LiCl/2,2,2-trifluoroethanol was added to each well, which was then mixed for 5 s, followed by immediate fluorescence measurements every 1 s for 330 s using a 360–380 nm excitation LED module and a 400–460 nm emission filter. […] Raw fluorescence data was analyzed by non-linear regression analysis with Prism v.9 by fitting one-phase association curves to each well. Analyses were halted after the calculated maximum fluorescent value owing to observed fluorescent bleaching during the sustained fluorescent plateau. Rate constants calculated for each well (s^−1) were then normalized to substrate only (no prolyl-isomerase) and enzyme + substrate only controls.

`NCCOCCNC(=O)[C@@H]1CCNC(=O)/C=C/C(=O)N2CCC[C@](Cc3ccccc3)(C2)C(=O)N[C@@H](Cc2ccc(-c3ccccc3)cc2)C(=O)NCc2ccccc2CC(=O)N1` [Compound B2]: the “prolyl-isomerase activity (raw dose-response value)” value (shortened to “prolyl-isomerase activity”) was 0.06958 and 0.06894 and 0.06376 at PPWD1 (PPWD1, dose 0.00976562 µM); 0.07052 and 0.06933 and 0.06942 at PPWD1 (PPWD1, dose 0.0195312 µM); 0.07199 and 0.07365 and 0.06621 on PPWD1 (PPWD1, dose 0.0390625 µM); 0.0685 and 0.06494 and 0.06712 at PPWD1 (PPWD1, dose 0.078125 µM); 0.06342 and 0.0629 and 0.06451 at PPWD1 (PPWD1, dose 0.15625 µM); 0.06089 and 0.06073 and 0.06267 at PPWD1 (PPWD1, dose 0.3125 µM). Also, the “prolyl-isomerase activity” value on PPWD1 (PPWD1, dose 0.625 µM) is 0.0549 and 0.05757 and 0.05993; on PPWD1 (PPWD1, dose 1.25 µM) it was 0.05311 and 0.05273 and 0.05312; on PPWD1 (PPWD1, dose 2.5 µM), 0.04134 and 0.04153 and 0.04427; at PPWD1 (PPWD1, dose 5 µM) it was 0.03369 and 0.0291 and 0.03053; at PPWD1 (PPWD1, dose 10 µM) it was 0.0224 and 0.02303 and 0.02481; at CypD (CypD, dose 0.0195312 µM), 0.1243 and 0.1374 and 0.1472. For the same molecule, the “prolyl-isomerase activity” value on CypD (CypD, dose 0.0390625 µM) is 0.1094 and 0.1294 and 0.1367; at CypD (CypD, dose 0.078125 µM), 0.0906 and 0.1127 and 0.1064; on CypD (CypD, dose 0.15625 µM) it was 0.06823 and 0.08697 and 0.08033; on CypD (CypD, dose 0.3125 µM), 0.0483 and 0.05915 and 0.05559; on CypD (CypD, dose 0.625 µM) it was 0.03197 and 0.04004 and 0.03906; on CypD (CypD, dose 1.25 µM), 0.02117 and 0.02794 and 0.0263. The “prolyl-isomerase activity” value was 0.0143 and 0.01947 and 0.02017 on CypD (CypD, dose 2.5 µM); 0.01132 and 0.01248 and 0.01357 at CypD (CypD, dose 5 µM); 0.08321 and 0.1059 and 0.1063 at PPIL1 (PPIL1, dose 0.0228624 µM); 0.0991 and 0.07246 and 0.09332 at PPIL1 (PPIL1, dose 0.0685871 µM); 0.0916 and 0.08667 and 0.07563 at PPIL1 (PPIL1, dose 0.205761 µM); 0.08092 and 0.07121 and 0.1066 on PPIL1 (PPIL1, dose 0.617284 µM). In addition, the “prolyl-isomerase activity” value on PPIL1 (PPIL1, dose 1.85185 µM) was 0.07438 and 0.05377 and 0.06473; at PPIL1 (PPIL1, dose 5.55556 µM), 0.04981 and 0.03892 and 0.03912; at PPIL1 (PPIL1, dose 16.6667 µM), 0.02881 and 0.02468 and 0.02483; on PPIL1 (PPIL1, dose 50 µM), 0.01705 and 0.01748 and 0.0139. Further, the concentration for half-maximal inhibition (IC50) at PPWD1 came out at 3.2 µM; at CypD, 0.18 µM; on PPIL1 (setting [1]) it was 1.9 µM.
In the case of `NCCOCCNC(=O)C1CCNC(=O)C=CC(=O)N2CCCC(C2)C(=O)NC(Cc2ccco2)C(=O)NCc2ccccc2CC(=O)N1` (stereo not drawn) [JOMBt], the 50% inhibitory concentration (IC50) at PPWD1 was over 100 µM; against CypD it was 17 µM; against CypD (IC50 CypD trans, trans olefin isomer), 17 ± 2 µM; on CypD (Wild-Type Cyclophilin Prolyl Isomerase Inhibition IC50 Values, CypD, wild-type CypD), 17 µM; at PPIL1 (setting [1]), 40 µM.
In the case of `NC(=O)[C@@H]1CCNC(=O)/C=C/C(=O)N2CCC[C@](Cc3ccccc3)(C2)C(=O)N[C@@H](Cc2ccc(-c3cccc(B(O)O)c3)cc2)C(=O)NCc2ccccc2CC(=O)N1` [Compound C6A], the IC50 at PPWD1 is over 10 µM; on CypD (setting [2]), 1.1 µM; at PPIL1 (prolyl-isomerase inhibition, 5 nM cyclophilin, read-out: IC50 PPIL1) it was about 5 µM; at PPIL1 (setting [1]) it was over 10 µM.
In the case of `C[N+]1=C(C=CC=CC=C2N(CCCCCC(=O)NCCNC(=O)C3CCNC(=O)C=CC(=O)N4CCCC(Cc5ccccc5)(C4)C(=O)NC(Cc4ccc(-c5ccc(CC(C(=O)O)C(=O)O)cc5)cc4)C(=O)NCc4ccccc4CC(=O)N3)c3ccccc3C2(C)C)C(C)(C)c2ccccc21` (stereo not drawn) [Compound B52-Cy5], the figures for the half-maximal inhibitory concentration (IC50) at PPWD1, on CypD (setting [2]) and at PPIL1 (setting [1]) were over 10 µM, 0.007 µM and 4 µM, respectively.
For the molecule `C[N+]1=C(C=CC=CC=C2N(CCCCCC(=O)NCCNC(=O)C3CCNC(=O)C=CC(=O)N4CCCC(Cc5ccccc5)(C4)C(=O)NC(Cc4ccc(-c5ccc(C(CC(=O)O)CC(=O)O)cc5)cc4)C(=O)NCc4ccccc4CC(=O)N3)c3ccccc3C2(C)C)C(C)(C)c2ccccc21` (stereo not drawn) [*B53-Cy5], the IC50 at PPWD1, at CypD (setting [2]) and on PPIL1 (setting [1]) was over 10 µM throughout. For the same molecule, the “CypD prolyl-isomerase inhibition (in words)” value on CypD is on record as “do not inhibit CypD in vitro”.
On to `C[N+]1=C(C=CC=CC=C2N(CCCCCC(=O)NCCNC(=O)C3CCNC(=O)C=CC(=O)N4CCCC(Cc5ccccc5)(C4)C(=O)NC(Cc4ccc(-c5ccc(C(CC(=O)O)CC(=O)O)cc5)cc4)C(=O)NCc4ccccc4CC(=O)N3)c3ccccc3C2(C)C)C(C)(C)c2ccccc21` (stereo not drawn) [Compound B53-Cy5], for which the half-maximal inhibitory concentration (IC50) is over 2 µM on PPWD1, 0.029 µM at CypD (setting [2]) and over 2 µM at PPIL1 (setting [1]).
Turning to `C[N+]1=C(C=CC=CC=C2N(CCCCCC(=O)NCCNC(=O)C3CCNC(=O)C=CC(=O)N4CCCC(Cc5ccccc5)(C4)C(=O)NC(Cc4ccc(-c5ccc(CC(C(=O)O)C(=O)O)cc5)cc4)C(=O)NCc4ccccc4CC(=O)N3)c3ccccc3C2(C)C)C(C)(C)c2ccccc21` (stereo not drawn) [*B52-Cy5], the half-inhibitory concentration (IC50) at PPWD1, on CypD (setting [2]) and on PPIL1 (setting [1]) was over 10 µM each time. Moreover, at CypD, the “CypD prolyl-isomerase inhibition (in words)” value is on record as “do not inhibit CypD in vitro”.

The values above are taken from paper PMC9596378, “Discovery and molecular basis of subtype-selective cyclophilin inhibitors” (Nature Chemical Biology, 2022).
